In patent US6355799B1, “Substituted benzene compounds, process for their preparation, and herbicidal and defoliant compositions containing them” (ISK Americas Incorporated, priority 1997, dated 2002):
Like-named read-outs stand apart in the source and are kept apart here.

Assays:
Format in all cases: in vivo
[1] = tested on: redroot pigweed (Amaranthus retroflexus, AMARE); assay: Post-emerge test, greenhouse herbicide activity screening; conditions: Amaranthus retroflexus, post-emergence, 336 h, read-out: Post-emerge Herbicidal Activity AMARE; for pest or weed control at 63 g/ha: 63 g ai/ha; for pest or weed control at 250 g/ha: 250 g ai/ha
How it was run: (§1)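 Applied at 15–1000 g ai/ha from acetone in 187 l/ha spray volume. Post-emergence applications included 0.25% v/v non-ionic surfactant and reached plants sown 8–21 days before. Pre-emergence applications were incorporated by surface watering. Efficacy or crop damage was rated on a 0–100 scale after 14 days.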

[2] = tested on: large crabgrass (Digitaria sanguinalis, DIGSA); assay: as above; conditions: Digitaria sanguinalis, post-emergence, 336 h, read-out: Post-emerge Herbicidal Activity DIGSA; for pest or weed control at 63 g/ha: 63 g ai/ha; for pest or weed control at 250 g/ha: 250 g ai/ha
How it was run: as §1

[3] = tested on: velvetleaf (Abutilon theophrasti, ABUTH); assay: as above; conditions: Abutilon theophrasti, post-emergence, 336 h, read-out: Post-emerge Herbicidal Activity ABUTH; for pest or weed control at 63 g/ha: 63 g ai/ha; for pest or weed control at 250 g/ha: 250 g ai/ha
How it was run: as §1

[4] = tested on: lambsquarters (Chenopodium album, CHEAL); assay: as above; conditions: Chenopodium album, post-emergence, 336 h, read-out: Post-emerge Herbicidal Activity CHEAL; for pest or weed control at 63 g/ha: 63 g ai/ha; for pest or weed control at 250 g/ha: 250 g ai/ha
How it was run: as §1

[5] = tested on: johnsongrass (Sorghum halepense, SORHA); assay: as above; conditions: Sorghum halepense, post-emergence, 336 h, read-out: Post-emerge Herbicidal Activity SORHA; for pest or weed control at 63 g/ha: 63 g ai/ha; for pest or weed control at 250 g/ha: 250 g ai/ha
How it was run: as §1

[6] = tested on: barnyardgrass (Echinochloa crus-galli, ECHCG); assay: as above; conditions: Echinochloa crus-galli, post-emergence, 336 h, read-out: Post-emerge Herbicidal Activity ECHCG; for pest or weed control at 63 g/ha: 63 g ai/ha; for pest or weed control at 250 g/ha: 250 g ai/ha
How it was run: as §1

[7] = tested on: ivyleaf morningglory (Ipomoea hederacea, IPOHE); assay: as above; conditions: Ipomoea, post-emergence, 336 h, read-out: Post-emerge Herbicidal Activity IPOHE; for pest or weed control at 63 g/ha: 63 g ai/ha; for pest or weed control at 250 g/ha: 250 g ai/ha
How it was run: as §1

[8] = tested on: green foxtail (Setaria viridis, SETVI); assay: as above; conditions: Setaria viridis, post-emergence, 336 h, read-out: Post-emerge Herbicidal Activity SETVI; for pest or weed control at 63 g/ha: 63 g ai/ha; for pest or weed control at 250 g/ha: 250 g ai/ha
How it was run: as §1

[9] = tested on: large crabgrass (Digitaria sanguinalis, DIGSA); assay: Pre-emerge test, greenhouse herbicide activity screening; conditions: pre-emerge; for Pre-emerge Herbicidal Activity DIGSA (phytotoxicity rating, scale 0-100): rated 14 days after application, 0 = no damage, 100 = complete death
How it was run: (§2)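 Herbicidal damage is scored 0 (none) to 100 (complete plant death) two weeks after a simulated field spray. Rates span 15–1000 g ai/ha, delivered in acetone at 187 l/ha. For post-emergence treatments, plants have 2–3 leaves and the spray carries 0.25% v/v non-ionic surfactant.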

[10] = tested on: velvetleaf (Abutilon theophrasti, ABUTH); assay: as above; conditions: pre-emerge; for Pre-emerge Herbicidal Activity ABUTH (phytotoxicity rating, scale 0-100): rated 14 days after application, 0 = no damage, 100 = complete death
How it was run: as §2

[11] = tested on: sicklepod (Cassia obtusifolia, CASOB); assay: as above; conditions: pre-emerge; for Pre-emerge Herbicidal Activity CASOB (phytotoxicity rating, scale 0-100): rated 14 days after application, 0 = no damage, 100 = complete death
How it was run: as §2

[12] = tested on: johnsongrass (Sorghum halepense, SORHA); assay: as above; conditions: pre-emerge; for Pre-emerge Herbicidal Activity SORHA (phytotoxicity rating, scale 0-100): rated 14 days after application, 0 = no damage, 100 = complete death
How it was run: as §2

[13] = tested on: green foxtail (Setaria viridis, SETVI); assay: as above; conditions: pre-emerge; for Pre-emerge Herbicidal Activity SETVI (phytotoxicity rating, scale 0-100): rated 14 days after application, 0 = no damage, 100 = complete death
How it was run: as §2

[14] = phytotoxicity rating 0-100 (0 no damage, 100 complete death), 14 days after application
[15] = post-emerge, phytotoxicity rating 0-100 at 14 days after application

COc1c(Cl)cc(F)c(-n2c(=O)cc(C(F)(F)F)n(C)c2=O)c1N(C(C)=O)C(C)=O [Compound 2-2, 3-(4-chloro-2-diacetylamino-6-fluoro-3-methoxyphenyl)-1-methyl-6-trifluoromethyl-2,4(1H, 3H)-pyrimidinedione]
pest or weed control at 63 g/ha [1, 14]: 90% | pest or weed control at 250 g/ha [1, 14]: 100% | pest or weed control at 63 g/ha [2, 14]: 0% | pest or weed control at 250 g/ha [2, 14]: 30% | pest or weed control at 63 g/ha [3, 14]: 95% | pest or weed control at 250 g/ha [3, 14]: 100% | pest or weed control at 63 g/ha [4, 14]: 60% | pest or weed control at 250 g/ha [4, 14]: 100% | pest or weed control at 63 g/ha [5, 14]: 0% | pest or weed control at 250 g/ha [5, 14]: 50% | pest or weed control at 63 g/ha [6, 14]: 0% | pest or weed control at 250 g/ha [6, 14]: 40% | pest or weed control at 63 g/ha [7, 14]: 95% | pest or weed control at 250 g/ha [7, 14]: 100% | pest or weed control at 63 g/ha [8, 14]: 0% | pest or weed control at 250 g/ha [8, 14]: 30% | Pre-emerge Herbicidal Activity DIGSA (phytotoxicity rating, scale 0-100) ([9]; 63 g ai/ha): 90 | Pre-emerge Herbicidal Activity DIGSA (phytotoxicity rating, scale 0-100) ([9]; 250 g ai/ha): 95 | Pre-emerge Herbicidal Activity ABUTH (phytotoxicity rating, scale 0-100) ([10]; 63 g ai/ha): 100 | Pre-emerge Herbicidal Activity ABUTH (phytotoxicity rating, scale 0-100) ([10]; 250 g ai/ha): 100 | Pre-emerge Herbicidal Activity CASOB (phytotoxicity rating, scale 0-100) ([11]; 63 g ai/ha): 60 | Pre-emerge Herbicidal Activity CASOB (phytotoxicity rating, scale 0-100) ([11]; 250 g ai/ha): 90 | Pre-emerge Herbicidal Activity SORHA (phytotoxicity rating, scale 0-100) ([12]; 63 g ai/ha): 60 | Pre-emerge Herbicidal Activity SORHA (phytotoxicity rating, scale 0-100) ([12]; 250 g ai/ha): 90 | Pre-emerge Herbicidal Activity SETVI (phytotoxicity rating, scale 0-100) ([13]; 63 g ai/ha): 90 | Pre-emerge Herbicidal Activity SETVI (phytotoxicity rating, scale 0-100) ([13]; 250 g ai/ha): 100

COc1c(Cl)cc(F)c(-c2nn(C)c(C(F)(F)F)c2Cl)c1N [Compound 7-2, 4-chloro-3-(2-amino-4-chloro-6-fluoro3-metoxyphenyl)-1-methyl-5-trifluoromethyl-1H-pyrazole]
pest or weed control at 63 g/ha [1, 15]: 100% | pest or weed control at 250 g/ha [1, 15]: 100% | pest or weed control at 63 g/ha [2, 15]: 20% | pest or weed control at 250 g/ha [2, 15]: 70% | pest or weed control at 63 g/ha [3, 15]: 100% | pest or weed control at 250 g/ha [3, 15]: 100% | pest or weed control at 63 g/ha [4, 15]: 95% | pest or weed control at 250 g/ha [4, 15]: 100% | pest or weed control at 63 g/ha [5, 15]: 20% | pest or weed control at 250 g/ha [5, 15]: 40% | pest or weed control at 63 g/ha [6, 15]: 30% | pest or weed control at 250 g/ha [6, 15]: 90% | pest or weed control at 63 g/ha [7, 15]: 80% | pest or weed control at 250 g/ha [7, 15]: 100% | pest or weed control at 63 g/ha [8, 15]: 20% | pest or weed control at 250 g/ha [8, 15]: 50% | pest or weed control at 63 g/ha ([9]; Digitaria sanguinalis, pre-emergence, 336 h, rate 63 g ai/ha, phytotoxicity rating 0-100 at 14 days after application, read-out: Pre-emerge Herbicidal Activity DIGSA): 100% | pest or weed control at 250 g/ha ([9]; Digitaria sanguinalis, pre-emergence, 336 h, rate 250 g ai/ha, phytotoxicity rating 0-100 at 14 days after application, read-out: Pre-emerge Herbicidal Activity DIGSA): 100% | pest or weed control at 63 g/ha ([10]; Abutilon theophrasti, pre-emergence, 336 h, rate 63 g ai/ha, phytotoxicity rating 0-100 at 14 days after application, read-out: Pre-emerge Herbicidal Activity ABUTH): 95% | pest or weed control at 250 g/ha ([10]; Abutilon theophrasti, pre-emergence, 336 h, rate 250 g ai/ha, phytotoxicity rating 0-100 at 14 days after application, read-out: Pre-emerge Herbicidal Activity ABUTH): 100% | pest or weed control at 63 g/ha ([11]; Senna obtusifolia, pre-emergence, 336 h, rate 63 g ai/ha, phytotoxicity rating 0-100 at 14 days after application, read-out: Pre-emerge Herbicidal Activity CASOB): 30% | pest or weed control at 250 g/ha ([11]; Senna obtusifolia, pre-emergence, 336 h, rate 250 g ai/ha, phytotoxicity rating 0-100 at 14 days after application, read-out: Pre-emerge Herbicidal Activity CASOB): 30% | pest or weed control at 63 g/ha ([12]; Sorghum halepense, pre-emergence, 336 h, rate 63 g ai/ha, phytotoxicity rating 0-100 at 14 days after application, read-out: Pre-emerge Herbicidal Activity SORHA): 95% | pest or weed control at 250 g/ha ([12]; Sorghum halepense, pre-emergence, 336 h, rate 250 g ai/ha, phytotoxicity rating 0-100 at 14 days after application, read-out: Pre-emerge Herbicidal Activity SORHA): 100% | pest or weed control at 63 g/ha ([13]; Setaria viridis, pre-emergence, 336 h, rate 63 g ai/ha, phytotoxicity rating 0-100 at 14 days after application, read-out: Pre-emerge Herbicidal Activity SETVI): 95% | pest or weed control at 250 g/ha ([13]; Setaria viridis, pre-emergence, 336 h, rate 250 g ai/ha, phytotoxicity rating 0-100 at 14 days after application, read-out: Pre-emerge Herbicidal Activity SETVI): 100%
